Experimental data reported in patent US9394299B2, “Rilyazine derivatives and compositions for the treatment of cancer” (Warner Babcock Institute for Green Chemistry, LLC, priority 2013, dated 2016).
Entries after “also recorded” stand apart in the source; their conditions may differ.

Tested on: 60 cell lines (human tumor cell lines of the cancer screening panel)
Experiment: NCI 60 cell line screening, five point dosing (SRB)
Format: cell-based
Experimental: RL-4 was evaluated against the 60 cell panel at five concentration levels, 10^−8 M, 10^−7 M, 10^−6 M, 10^−5 M and 10^−4 M.
The human tumor cell lines of the cancer screening panel are grown in RPMI 1640 medium containing 5% fetal bovine serum and 2 mM L-glutamine. Cells are inoculated into 96 well microtiter plates in 100 μL at plating densities ranging from 5,000 to 40,000 cells/well depending on the doubling time of individual cell lines. After cell inoculation, the microtiter plates are incubated at 37° C., 5% CO2, 95% air and 100% relative humidity for 24 h prior to addition of experimental drugs.
After 24 h, two plates of each cell line are fixed in situ with TCA, to represent a measurement of the cell population for each cell line at the time of drug addition Time Zero (Tz). Experimental drugs are solubilized in dimethyl sulfoxide:glycerol 9:1 at 400-fold the desired final maximum test concentration and stored frozen at −70° C. prior to use. At the time of drug addition, an aliquot of frozen concentrate is thawed and diluted to twice the desired final maximum test concentration with complete medium containing 50 μg/ml gentamicin. Additional four, 10-fold or ½ log serial dilutions are made to provide a total of five drug concentrations plus control. Aliquots of 100 μl of these different drug dilutions are added to the appropriate microtiter wells already containing 100 μl of medium, resulting in the required final drug concentrations.
Positive control is prepared by adding the known anti-tumor agent adriamycin, NSC 123127, prepared and stored the same as the compounds for testing.
Following drug addition, the plates are incubated for an additional 48 h at 37° C., 5% CO2, 95% air, and 100% relative humidity. For adherent cells, the assay is terminated by the addition of cold TCA. Cells are fixed in situ by the gentle addition of 50 μl of cold 50% (w/v) TCA (final concentration, 10% TCA) and incubated for 60 minutes at 4° C. The supernatant is discarded, and the plates are washed five times with tap water and air dried. Sulforhodamine B (SRB) solution (100 μl) at 0.4% (w/v) in 1% acetic acid is added to each well, and plates are incubated for 10 minutes at room temperature. After staining, unbound dye is removed by washing five times with 1% acetic acid and the plates are air dried. Bound stain is subsequently solubilized with 10 mM trizma base, and the absorbance is read on an automated plate reader at a wavelength of 515 nm. For suspension cells, the methodology is the same except that the assay is terminated by fixing settled cells at the bottom of the wells by gently adding 50 μl of 80% TCA (final concentration, 16% TCA).
The percentage growth is calculated at each of the five drug concentrations levels using the seven absorbance measurements, namely absorbance at time zero (Tz), absorbance of control after incubation (C), and absorbance of test sample after incubation in the presence of drug at each of the five concentration levels (Ti). The Growth Percent is calculated as it was for the 1 dose assay: Growth Percent=[(Ti−Tz)/(C−Tz)]×100 for cell line/drug combinations for which Ti≧Tz. Growth Percent=[(Ti−Tz)/Tz]×100 for cell line/drug combinations for which Ti<Tz.
For the 5-dose 60 cell testing, three dose-response parameters are determined for each experimental agent. These parameters are Growth Inhibition of 50% (GI50), drug concentration resulting in Total Growth Inhibition (TGI), and concentration resulting in 50% lethality (LC50).
Growth inhibition of 50% (GI50) is determined as the drug concentration at which Growth Percent=[(Ti−Tz)/(C−Tz)]×100=50. GI50 is the drug concentration resulting in a 50% reduction in the net protein increase compared to the increase in protein in control cells (as measured by SRB staining) during the drug incubation.
The drug concentration resulting in total growth inhibition (TGI) is determined as the drug concentration at which Ti=Tz, which corresponds to a Growth Percent of zero. […]

[1] = five point dosing, 60 cell lines

Which GI50 (Homo sapiens, five point dosing 10^−8 to 10^−4 M, mean of 60 cell lines, read-out: Mean GI50 for all 60 cell lines) does the source give for `S=c1c2ncccc2c(-c2ccccn2)nn1C1CCCCC1` [RL-4, 7-cyclohexyl-5-(pyridin-2-yl)pyrido[2,3-d]pyridazine-8(7H)-thione] here?
The GI50 was 20 µM.

What about the CC50 (Homo sapiens, five point dosing up to 10^−4 M, read-out: LC50 for all other cell lines (except COLO 205)) of the same compound?
Its CC50 is greater than 100 µM.

And the “toxicity (in words)” value (concentrations up to 10^−4 M)?
Its value is “not toxic at the concentrations tested; also recorded: not observed”.

What about the “growth inhibition / anti-proliferative efficacy (in words)” value (five point dosing 10^−8 to 10^−4 M, 60 cell lines) of the same compound?
Its value is “significant growth inhibition across all 60 cell lines; also recorded: anti-proliferative efficacy across a range of 60 cell lines”.

What about the “log10GI50 Delta” value [1] of the same compound?
The value was 1.45.

And the “log10GI50 Mean” value [1]?
Its value is −5.0.

And the “log10GI50 Range” value [1]?
Its value is 2.45.

And the “number of cell lines in which total growth inhibition (growth percent=0, TGI) was achieved” value (within dosage range tested, of 60 cell lines)?
Its value is “eight”.
